From PubChem BioAssay AID330 (DTP/NCI, 2004)
Where “and” joins values, the source holds several entries; their conditions need not be identical. Equal entries are not always repeated. Inconclusive results and toxic doses are left out.

Test system: P388 leukemia ip, CD2F1 mice, survival T/C
Assay: NCI In Vivo Anticancer Drug Screen. Data for tumor model P388 Leukemia (intraperitoneal) in CD2F1 (CDF1) mice
Conditions: endpoint: median survival time, higher = longer survival
Procedure, shortened: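 Mice carrying the transplanted tumor received test compound or vehicle. Survival was recorded in each group, and the value is the treated-group measurement divided by that of the vehicle-treated control group.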

[1] = dose: 12.5 mg/kg/injection, schedule: Q01DX009 (ip), vehicle: saline

ClCC[N+]12CC[N+](CCCl)(CC1)C2
T/C (dose: 6.25 mg/kg/injection, schedule: Q01DX006 (ip), vehicle: water): 120 % of control | T/C (dose: 6.25 mg/kg/injection, schedule: Q01DX009 (ip), vehicle: distilled water + Tween-80): 117 % of control | T/C (dose: 6.25 mg/kg/injection, schedule: Q01DX009 (ip), vehicle: water): 115 % of control [middle of 4 runs] | T/C (dose: 7.5 mg/kg/injection, schedule: Q01DX005 (iv), vehicle: clinical formulation): 105 % of control | T/C (dose: 7.5 mg/kg/injection, schedule: Q01DX005 (iv), vehicle: water): 100 % of control and 106 % of control | T/C (dose: 12.5 mg/kg/injection, schedule: Q01DX006 (ip), vehicle: water): 101 % of control | T/C [1]: 105 % of control | T/C (dose: 12.5 mg/kg/injection, schedule: Q01DX009 (ip), vehicle: water): 100 % of control and 104 % of control and 107 % of control | T/C (dose: 15.0 mg/kg/injection, schedule: Q01DX005 (iv), vehicle: clinical formulation): 105 % of control | T/C (dose: 15.0 mg/kg/injection, schedule: Q01DX005 (iv), vehicle: water): 99 % of control and 110 % of control | T/C (dose: 15.0 mg/kg/injection, schedule: Q01DX009 (ip), vehicle: clinical formulation): 100 % of control | T/C (dose: 15.0 mg/kg/injection, schedule: Q01DX009 (ip), vehicle: water): 99 % of control and 116 % of control | T/C (dose: 20.0 mg/kg/injection, schedule: Q01DX005 (ip), vehicle: water): 106 % of control | T/C (dose: 21.08 mg/kg/injection, schedule: Q01DX009 (ip), vehicle: water): 115 % of control and 103 % of control | T/C (dose: 23.71 mg/kg/injection, schedule: Q01DX005 (iv), vehicle: clinical formulation): 105 % of control | T/C (dose: 23.71 mg/kg/injection, schedule: Q01DX005 (iv), vehicle: water): 110 % of control and 105 % of control | T/C (dose: 25.0 mg/kg/injection, schedule: Q01DX006 (ip), vehicle: water): 113 % of control | T/C (dose: 25.0 mg/kg/injection, schedule: Q01DX009 (ip), vehicle: water): 109 % of control and 115 % of control | T/C (dose: 30.0 mg/kg/injection, schedule: Q01DX001 (ip), vehicle: water): 113 % of control | T/C (dose: 30.0 mg/kg/injection, schedule: Q01DX001 (iv), vehicle: water): 109 % of control | T/C (dose: 30.0 mg/kg/injection, schedule: Q01DX005 (ip), vehicle: water): 163 % of control | T/C (dose: 30.0 mg/kg/injection, schedule: Q01DX005 (iv), vehicle: clinical formulation): 109 % of control | T/C (dose: 30.0 mg/kg/injection, schedule: Q01DX005 (iv), vehicle: water): 113 % of control | T/C (dose: 30.0 mg/kg/injection, schedule: Q01DX005 (oral), vehicle: water): 110 % of control | T/C (dose: 30.0 mg/kg/injection, schedule: Q01DX009 (ip), vehicle: clinical formulation): 100 % of control | T/C (dose: 30.0 mg/kg/injection, schedule: Q01DX009 (ip), vehicle: water): 123 % of control | T/C (dose: 30.0 mg/kg/injection, schedule: Q01DX009 (oral), vehicle: water): 120 % of control | T/C (dose: 31.61 mg/kg/injection, schedule: Q01DX009 (ip), vehicle: water): 119 % of control | T/C (dose: 35.56 mg/kg/injection, schedule: Q01DX005 (iv), vehicle: clinical formulation): 111 % of control | T/C (dose: 35.56 mg/kg/injection, schedule: Q01DX005 (iv), vehicle: water): 110 % of control and 106 % of control | T/C (dose: 40.0 mg/kg/injection, schedule: Q01DX005 (ip), vehicle: water): 114 % of control | T/C (dose: 44.0 mg/kg/injection, schedule: Q01DX009 (ip), vehicle: water): 158 % of control | T/C (dose: 47.42 mg/kg/injection, schedule: Q01DX009 (ip), vehicle: water): 160 % of control | T/C (dose: 50.0 mg/kg/injection, schedule: Q01DX006 (ip), vehicle: water): 123 % of control | T/C (dose: 50.0 mg/kg/injection, schedule: Q01DX009 (ip), vehicle: saline with Tween-80): 100 % of control | T/C (dose: 50.0 mg/kg/injection, schedule: Q01DX009 (ip), vehicle: saline): 162 % of control and 180 % of control | T/C (dose: 50.0 mg/kg/injection, schedule: Q01DX009 (ip), vehicle: water): 113 % of control and 120 % of control | T/C (dose: 50.0 mg/kg/injection, schedule: Q04DX003 (ip), vehicle: distilled water + Tween-80): 124 % of control | T/C (dose: 53.34 mg/kg/injection, schedule: Q01DX005 (iv), vehicle: water): 115 % of control and 111 % of control | T/C (dose: 60.0 mg/kg/injection, schedule: Q01DX001 (ip), vehicle: water): 115 % of control | T/C (dose: 60.0 mg/kg/injection, schedule: Q01DX001 (iv), vehicle: water): 117 % of control | T/C (dose: 60.0 mg/kg/injection, schedule: Q01DX001 (oral), vehicle: water): 109 % of control | T/C (dose: 60.0 mg/kg/injection, schedule: Q01DX005 (ip), vehicle: water): 154 % of control and 170 % of control | T/C (dose: 60.0 mg/kg/injection, schedule: Q01DX005 (iv), vehicle: clinical formulation): 120 % of control | T/C (dose: 60.0 mg/kg/injection, schedule: Q01DX005 (oral), vehicle: water): 119 % of control | T/C (dose: 60.0 mg/kg/injection, schedule: Q01DX009 (ip), vehicle: water): 155 % of control | T/C (dose: 66.0 mg/kg/injection, schedule: Q01DX009 (ip), vehicle: water): 167 % of control | T/C (dose: 71.12 mg/kg/injection, schedule: Q01DX009 (ip), vehicle: clinical formulation): 173 % of control | T/C (dose: 71.12 mg/kg/injection, schedule: Q01DX009 (ip), vehicle: water): 177 % of control and 165 % of control | T/C (dose: 80.0 mg/kg/injection, schedule: Q01DX005 (iv), vehicle: clinical formulation): 122 % of control | T/C (dose: 80.0 mg/kg/injection, schedule: Q01DX005 (iv), vehicle: water): 119 % of control and 112 % of control | T/C (dose: 100.0 mg/kg/injection, schedule: Q01DX005 (ip), vehicle: water): 155 % of control | T/C (dose: 100.0 mg/kg/injection, schedule: Q01DX009 (ip), vehicle: saline with Tween-80): 189 % of control and 198 % of control and 213 % of control | T/C (dose: 100.0 mg/kg/injection, schedule: Q01DX009 (ip), vehicle: saline): 153 % of control and 163 % of control and 182 % of control | T/C (dose: 100.0 mg/kg/injection, schedule: Q01DX009 (oral), vehicle: saline with Tween-80): 112 % of control | T/C (dose: 100.0 mg/kg/injection, schedule: Q04DX003 (ip), vehicle: distilled water + Tween-80): 151 % of control | T/C (dose: 100.0 mg/kg/injection, schedule: Q04DX003 (ip), vehicle: saline with Tween-80): 154 % of control | T/C (dose: 106.68 mg/kg/injection, schedule: Q01DX009 (ip), vehicle: water): 214 % of control | T/C (dose: 120.0 mg/kg/injection, schedule: Q01DX001 (oral), vehicle: water): 114 % of control | T/C (dose: 120.0 mg/kg/injection, schedule: Q01DX005 (ip), vehicle: water): 184 % of control | T/C (dose: 150.0 mg/kg/injection, schedule: Q01DX009 (ip), vehicle: water): 99 % of control | T/C (dose: 160.0 mg/kg/injection, schedule: Q01DX009 (ip), vehicle: water): 231 % of control | T/C (dose: 178.0 mg/kg/injection, schedule: Q01DX001 (ip), vehicle: saline with Tween-80): 124 % of control | T/C (dose: 200.0 mg/kg/injection, schedule: Q01DX009 (ip), vehicle: saline with Tween-80): 120 % of control and 233 % of control | T/C (dose: 200.0 mg/kg/injection, schedule: Q01DX009 (ip), vehicle: saline): 234 % of control and 90 % of control | T/C (dose: 200.0 mg/kg/injection, schedule: Q01DX009 (ip), vehicle: water): 180 % of control | T/C (dose: 200.0 mg/kg/injection, schedule: Q04DX003 (ip), vehicle: distilled water + Tween-80): 171 % of control | T/C (dose: 200.0 mg/kg/injection, schedule: Q04DX003 (ip), vehicle: saline with Tween-80): 186 % of control and 190 % of control | T/C (dose: 240.0 mg/kg/injection, schedule: Q01DX001 (oral), vehicle: water): 117 % of control | T/C (dose: 240.0 mg/kg/injection, schedule: Q01DX009 (ip), vehicle: water): 87 % of control | T/C (dose: 264.0 mg/kg/injection, schedule: Q04DX003 (ip), vehicle: saline with Tween-80): 227 % of control | T/C (dose: 400.0 mg/kg/injection, schedule: Q01DX001 (ip), vehicle: saline with Tween-80): 159 % of control

CCOC(=O)[C]1([Hg][CH3])N=NC(C(=O)OC)=C1C(=O)OC (configuration not stated)
T/C (dose: 1.56 mg/kg/injection, schedule: Q01DX009 (ip), vehicle: saline): 90 % of control | T/C (dose: 3.12 mg/kg/injection, schedule: Q01DX009 (ip), vehicle: saline): 93 % of control | T/C (dose: 6.25 mg/kg/injection, schedule: Q01DX009 (ip), vehicle: saline): 90 % of control | T/C [1]: 93 % of control

C=C(C)c1nc(N)nc(NCCCC)n1
T/C (dose: 100.0 mg/kg/injection, schedule: Q04DX003 (ip), vehicle: Klucel (hydroxypropylcellulose) (HPC)): 104 % of control | T/C (dose: 200.0 mg/kg/injection, schedule: Q04DX003 (ip), vehicle: Klucel (hydroxypropylcellulose) (HPC)): 100 % of control | T/C (dose: 400.0 mg/kg/injection, schedule: Q04DX003 (ip), vehicle: Klucel (hydroxypropylcellulose) (HPC)): 96 % of control

COC1=CC(=O)C(c2cc(O)c(OC)cc2O)=CC1=O
T/C (dose: 12.0 mg/kg/injection, schedule: Q01DX005 (ip), vehicle: saline with Tween-80): 114 % of control | T/C (dose: 25.0 mg/kg/injection, schedule: Q01DX005 (ip), vehicle: saline with Tween-80): 108 % of control | T/C (dose: 50.0 mg/kg/injection, schedule: Q01DX005 (ip), vehicle: saline with Tween-80): 99 % of control
